The values that follow come from patent US20190076406A1, “METHODS AND COMPOSITIONS FOR TREATING CONDITIONS ASSOCIATED WITH ANGIOGENESIS USING A VASCULAR ADHESION PROTEIN-1 (VAP-1) INHIBITOR” (MASSACHUSETTS EYE & EAR INFIRMARY, priority 2007, published 2019).

Test [1] addresses T1, human semicarbazide-sensitive amine oxidase (SSAO) (Homo sapiens, UniProt Q16853).
T1 sequence (Q16853 1-763): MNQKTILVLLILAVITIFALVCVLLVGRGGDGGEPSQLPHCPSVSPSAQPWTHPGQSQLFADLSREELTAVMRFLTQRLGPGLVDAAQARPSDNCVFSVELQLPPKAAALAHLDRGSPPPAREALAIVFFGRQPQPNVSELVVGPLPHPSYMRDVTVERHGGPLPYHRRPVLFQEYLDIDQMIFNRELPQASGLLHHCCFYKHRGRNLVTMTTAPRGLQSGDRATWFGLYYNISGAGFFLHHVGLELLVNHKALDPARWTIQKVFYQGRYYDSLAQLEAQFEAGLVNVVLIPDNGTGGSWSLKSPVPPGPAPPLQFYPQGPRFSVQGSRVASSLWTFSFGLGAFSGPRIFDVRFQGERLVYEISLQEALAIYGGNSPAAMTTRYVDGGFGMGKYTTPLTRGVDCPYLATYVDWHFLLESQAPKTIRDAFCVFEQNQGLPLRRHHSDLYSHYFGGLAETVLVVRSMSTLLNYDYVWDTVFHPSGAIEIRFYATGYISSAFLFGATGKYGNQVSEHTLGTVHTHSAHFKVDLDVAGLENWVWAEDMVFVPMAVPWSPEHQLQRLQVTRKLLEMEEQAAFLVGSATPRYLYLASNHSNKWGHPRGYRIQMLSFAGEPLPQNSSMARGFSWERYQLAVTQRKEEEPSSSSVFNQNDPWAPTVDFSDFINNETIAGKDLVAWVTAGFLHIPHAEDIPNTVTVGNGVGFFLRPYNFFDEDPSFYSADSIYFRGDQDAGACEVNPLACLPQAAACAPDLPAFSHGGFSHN
Nature of the test: IC50 against human SSAO. The test is classed as biochemical.

In test [2] the target is T2, monoamine oxidase (MAO)-A (Homo sapiens, UniProt P21397).
T2 sequence (P21397 1-527): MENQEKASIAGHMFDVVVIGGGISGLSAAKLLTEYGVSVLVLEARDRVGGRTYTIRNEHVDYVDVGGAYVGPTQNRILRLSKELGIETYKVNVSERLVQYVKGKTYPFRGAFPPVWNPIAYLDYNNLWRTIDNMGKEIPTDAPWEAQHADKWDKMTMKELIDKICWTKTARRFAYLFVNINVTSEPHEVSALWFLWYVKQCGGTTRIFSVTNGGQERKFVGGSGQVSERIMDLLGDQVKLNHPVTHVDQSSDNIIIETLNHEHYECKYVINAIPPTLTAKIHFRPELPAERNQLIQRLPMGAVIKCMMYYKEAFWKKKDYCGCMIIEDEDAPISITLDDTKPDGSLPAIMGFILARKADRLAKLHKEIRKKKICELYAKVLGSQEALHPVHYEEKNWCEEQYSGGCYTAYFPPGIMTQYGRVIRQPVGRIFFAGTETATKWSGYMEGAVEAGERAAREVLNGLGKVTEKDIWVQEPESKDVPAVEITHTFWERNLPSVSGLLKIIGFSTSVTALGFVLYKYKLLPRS
Nature of the test: IC50 against MAO-A. The format is biochemical.

For the next test, the target named is T3, MAO-B (Homo sapiens, UniProt P27338).
T3 sequence (P27338 1-520): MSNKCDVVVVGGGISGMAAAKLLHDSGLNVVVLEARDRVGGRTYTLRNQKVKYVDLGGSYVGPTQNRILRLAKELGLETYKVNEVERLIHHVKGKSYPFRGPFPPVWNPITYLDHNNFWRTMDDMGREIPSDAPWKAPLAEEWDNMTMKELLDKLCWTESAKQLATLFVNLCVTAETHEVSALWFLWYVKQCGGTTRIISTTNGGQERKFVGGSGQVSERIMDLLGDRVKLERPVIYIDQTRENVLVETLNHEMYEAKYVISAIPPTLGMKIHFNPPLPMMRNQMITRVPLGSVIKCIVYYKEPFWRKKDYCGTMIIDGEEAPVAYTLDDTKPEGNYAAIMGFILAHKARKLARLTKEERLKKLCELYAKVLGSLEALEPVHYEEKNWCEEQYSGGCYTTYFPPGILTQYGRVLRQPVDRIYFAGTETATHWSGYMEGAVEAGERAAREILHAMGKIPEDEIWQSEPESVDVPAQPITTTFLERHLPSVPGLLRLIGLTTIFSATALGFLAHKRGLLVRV
Nature of the test: IC50 against MAO-B. The test is classed as biochemical.

The test system of the next test is TNF-α. Briefly: ELISA of TNF-α in RPE-choroid complex after laser injury. The test is classed as in vivo, rat. The following applies: 3 days after laser injury; 0.3 mg/kg daily i.p.; mean±SEM. As for the experimental part:
(§1) Brown-Norway rats were anesthetized with 0.2-0.3 ml of a 50:50 mixture of 100 mg/ml Ketamine and 20 mg/ml Xylazine. Pupils were dilated with 5.0% Phenylephrine and 0.8% Tropicamide. CNV was induced with a 532 nm laser (Oculight GLx, Iridex, Mountain View, Calif.). Six laser spots (150 mW, 100 μm, 100 msec) were placed in each eye using a slit-lamp delivery system and a cover glass as a contact lens. Production of a bubble at the time of laser confirmed the rupture of the Bruch's membrane.
(§2) To block VAP-1, a specific VAP-1 inhibitor, Compound II described above, was used (R-tech Ueno, Ltd., Tokyo, Japan). […]
(§3) The RPE-choroid complex was carefully isolated from eyes 3 days after photocoagulation and placed in 300 μl of lysis buffer supplemented with protease inhibitors and sonicated. The lysate was centrifuged at 15,000 rpm for 15 minutes at 4° C. and the levels of TNF-α, monocyte chemotactic protein (MCP)-1, and intercellular adhesion molecule (ICAM)-1 were determined with rat TNF-α (BD bioscience), MCP-1 (BD bioscience) and ICAM-1 (R&D Systems, Minneapolis, Minn.) enzyme-linked immunosorbent assay (ELISA) kits according to the manufacturers' protocols. Total protein concentration was determined using a Bio-Rad Protein Assay Kit (Bio-Rad Laboratories Hercules, Calif.) and dilutions of bovine serum albumin (Bio-Rad Laboratories) as standards.
On the technique in general: ELISA stands for enzyme-linked immunosorbent assay.

Another test concerns MCP-1. Nature of the test: ELISA of MCP-1 in RPE-choroid complex after laser injury. Conditions: 3 days after laser injury; 0.3 mg/kg daily i.p.; mean±SEM. The test is classed as in vivo, rat. As for the experimental part:
as §1, §2, §3

On to `CC(=O)Nc1nc(CCc2ccc(NC(=N)NN)cc2)c(Cc2ccc(S(C)(=O)=O)cc2)s1` [Compound II], for which the concentration for half-maximal inhibition (IC50) in test [1] is 0.007 µM; in test [2] it was over 10 µM; at MAO-B, over 10 µM. The “TNF-α protein level in RPE-choroid complex” value in the test on TNF-α is 360 ± 12 pg/mg. Further, in the test on MCP-1, the “MCP-1 protein level in RPE-choroid complex” value was determined as 662 ± 52 pg/mg.

The IC50 is the concentration that gives 50% inhibition. Higher therefore signals weaker potency.
